Results on 28 compounds are retold here after US7319098B2, “1,3-dioxoisoindole derivatives having selective antagonism of T-type calcium channel” (Korea Institute of Science and Technology, priority 2006, dated 2008).

The target in the assay is T1, α1G T-type Ca2+ channels (Homo sapiens, UniProt O43497).
T1 construct: expressed in transfected cells; host or cells: HEK293 cells stably expressing α1G and Kir2.1
The assay is described as follows: Screening of activity against T-type calcium channel with FDSS6000 (fluorescence, KCl-induced [Ca2+]i increase). It is filed as cell-based. The following applies: HEK293 cells expressing α1G and Kir2.1, read-out: Inhibitory effect (%) of T-type calcium channel, Inhibition (%); for inhibition at 10 µM: NA: Not Active. On the procedure: Meanwhile, the antagonistic activity of the novel compound of Formula (1) herein against T-type calcium channel was tested as described below. The synthesized compounds were tested for the activity against T-type calcium channel with FDSS6000. Compounds with good activity were selected and IC50 values were exactly obtained by using electrophysiological whole cell patch clamp method. HEK293 cells which stably express both α1G and Kir2.1 subunits were grown in Dulbecco's modified Eagle's medium supplemented with 10% (v/v) fetal bovine serum, penicillin (100 U/mL), streptomycin (100 μg/mL), geneticin (500 μg/mL), and +puromycin (I μg/mL) at 37° C. in a humid atmosphere of 5% CO2 and 95% air. Cells were seeded into 96-well black wall clear bottom plates at a density of 4×10^4 cells/well and were used the next day for high-throughput screening (HTS) FDSS6000 assay. For FDSS6000 assay, cells were incubated for 60 min at room temperature with 5 μM fluo3/AM and 0.001% Pluronic F-127 in a HEPES-buffered solution composed of (in mM): 115 NaCl, 5.4 KCl, 0.8 MgCl2, 1.8 CaCl2, 20 HEPES, 13.8 glucose (pH 7.4). During the fluorescence-based FDSS6000 assay, cells in HEPES-buffered solution containing 10 mM CaCl2 were pretreated with a certain concentration of test compounds and then treated with high concentration of KCl ([…]). α1G T-type Ca^2+ channels were activated by using high concentration of KCl (70 mM) and the increase in [Ca^2+]i by KCl-induced depolarization was detected. During the whole procedure, cells were washed using the BIO-TEK 96-well washer. All data were collected and analyzed using FDSS6000 and related software (Hamamatsu, Japan). The IC50 results of examining the inhibitory effects of the compounds herein selected with FDSS6000 on the calcium influx through the T-type calcium channel are provided in TABLEs 1 and 2.

T1 sequence (O43497 whole entry): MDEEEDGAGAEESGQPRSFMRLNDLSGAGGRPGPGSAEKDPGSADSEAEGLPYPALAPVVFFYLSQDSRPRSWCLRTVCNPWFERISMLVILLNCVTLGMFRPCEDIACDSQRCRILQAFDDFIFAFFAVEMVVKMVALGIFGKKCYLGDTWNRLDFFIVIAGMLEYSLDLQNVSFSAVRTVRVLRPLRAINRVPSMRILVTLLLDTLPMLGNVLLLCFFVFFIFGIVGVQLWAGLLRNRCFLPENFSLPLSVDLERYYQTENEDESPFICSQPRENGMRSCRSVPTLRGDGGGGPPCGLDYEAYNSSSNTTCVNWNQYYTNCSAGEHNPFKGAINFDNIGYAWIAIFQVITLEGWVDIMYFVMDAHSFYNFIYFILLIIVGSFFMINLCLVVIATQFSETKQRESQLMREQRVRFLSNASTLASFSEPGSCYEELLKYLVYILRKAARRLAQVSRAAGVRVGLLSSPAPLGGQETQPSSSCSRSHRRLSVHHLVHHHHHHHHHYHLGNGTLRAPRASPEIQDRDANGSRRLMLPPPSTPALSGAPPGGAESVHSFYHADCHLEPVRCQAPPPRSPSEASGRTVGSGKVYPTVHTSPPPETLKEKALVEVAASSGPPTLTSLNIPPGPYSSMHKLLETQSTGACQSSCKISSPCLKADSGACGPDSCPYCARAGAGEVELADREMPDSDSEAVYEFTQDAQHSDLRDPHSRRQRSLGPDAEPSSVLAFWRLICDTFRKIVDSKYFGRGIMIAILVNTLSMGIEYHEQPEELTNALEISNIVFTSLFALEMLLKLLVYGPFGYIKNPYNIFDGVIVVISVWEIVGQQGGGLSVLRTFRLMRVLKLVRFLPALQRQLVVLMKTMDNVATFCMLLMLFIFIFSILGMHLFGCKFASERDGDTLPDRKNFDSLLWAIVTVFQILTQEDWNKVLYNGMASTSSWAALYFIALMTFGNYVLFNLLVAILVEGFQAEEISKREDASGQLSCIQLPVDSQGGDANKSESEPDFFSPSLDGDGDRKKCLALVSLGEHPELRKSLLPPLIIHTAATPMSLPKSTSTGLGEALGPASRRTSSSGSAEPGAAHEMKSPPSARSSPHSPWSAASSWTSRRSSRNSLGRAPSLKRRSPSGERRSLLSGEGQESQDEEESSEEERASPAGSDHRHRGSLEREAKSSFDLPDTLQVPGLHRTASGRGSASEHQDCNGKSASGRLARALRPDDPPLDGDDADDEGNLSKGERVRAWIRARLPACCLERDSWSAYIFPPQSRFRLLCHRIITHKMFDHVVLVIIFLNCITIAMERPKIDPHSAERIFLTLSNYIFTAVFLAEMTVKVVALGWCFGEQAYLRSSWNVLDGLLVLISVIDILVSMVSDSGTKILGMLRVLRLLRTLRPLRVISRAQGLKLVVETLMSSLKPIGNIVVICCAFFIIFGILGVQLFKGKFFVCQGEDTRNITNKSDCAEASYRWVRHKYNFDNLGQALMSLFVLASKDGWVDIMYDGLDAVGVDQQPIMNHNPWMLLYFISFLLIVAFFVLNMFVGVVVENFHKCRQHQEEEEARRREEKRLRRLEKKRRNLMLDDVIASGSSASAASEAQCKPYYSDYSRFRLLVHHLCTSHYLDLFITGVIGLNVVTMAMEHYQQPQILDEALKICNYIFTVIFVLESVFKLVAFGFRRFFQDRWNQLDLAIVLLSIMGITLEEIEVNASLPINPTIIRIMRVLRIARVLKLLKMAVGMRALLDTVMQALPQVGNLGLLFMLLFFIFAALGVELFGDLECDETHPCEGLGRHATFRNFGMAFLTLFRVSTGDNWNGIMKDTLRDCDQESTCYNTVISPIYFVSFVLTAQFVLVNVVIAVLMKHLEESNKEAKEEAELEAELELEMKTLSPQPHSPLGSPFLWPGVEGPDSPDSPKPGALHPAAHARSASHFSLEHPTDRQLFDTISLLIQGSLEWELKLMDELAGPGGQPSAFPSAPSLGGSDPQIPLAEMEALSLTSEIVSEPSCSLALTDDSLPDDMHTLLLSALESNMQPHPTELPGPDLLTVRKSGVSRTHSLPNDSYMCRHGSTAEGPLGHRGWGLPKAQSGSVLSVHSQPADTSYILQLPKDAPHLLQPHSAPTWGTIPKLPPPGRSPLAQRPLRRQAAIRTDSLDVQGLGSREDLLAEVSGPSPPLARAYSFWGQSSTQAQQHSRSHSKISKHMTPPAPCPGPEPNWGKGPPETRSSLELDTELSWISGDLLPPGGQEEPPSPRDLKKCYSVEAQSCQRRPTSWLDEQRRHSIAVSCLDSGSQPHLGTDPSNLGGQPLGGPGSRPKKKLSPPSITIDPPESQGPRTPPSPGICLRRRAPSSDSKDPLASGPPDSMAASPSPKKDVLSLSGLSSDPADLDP

As for `O=C(NCCN1CCCCC1)c1ccc2c(c1)C(=O)N(c1ccc(F)cc1)C2=O` [Compound 19, 1-(2-{[2-(4-fluoro-phenyl)-1,3-dioxo-2,3-dihydro-1H-isoindol-5-carbonyl]-amino}-ethyl)-piperidinium chloride], the inhibition at 100 µM came out at 45.7%.

Regarding `CN1CCN(CCCNC(=O)c2ccc3c(c2)C(=O)N(Cc2ccc(F)cc2)C3=O)CC1` [Compound 74, 1-(3-{[2-(4-fluoro-benzyl)-1,3-dioxo-2,3-dihydro-1H-isoindol-5-carbonyl]-amino}-propyl)-4-methyl-1-piperazinium chloride], the inhibition at 10 µM was determined as 5.6%.

For the compound `COc1ccc(CN2C(=O)c3ccc(C(=O)NCCN4CCCCC4)cc3C2=O)cc1` [Compound 123, 1-(2-{[2-(4-methoxy-benzyl)-1,3-dioxo-2,3-dihydro-1H isoindol-5-carbonyl]-amino}-ethyl)-piperidinium chloride], the inhibition at 100 µM is 64.3%.

As for `Cc1cccc(N2C(=O)c3ccc(C(=O)NCCCN4CCOCC4)cc3C2=O)c1` [Compound 38, 4-{3-[(1,3-dioxo-2-m-tolyl-2,3-dihydro-1H-isoindol-5-carbonyl)-amino]-propyl}-4-morpholinium chloride], the inhibition at 10 µM came out at 4.2%.

As for `O=C(NCCN1CCCC1)c1ccc2c(c1)C(=O)N(Cc1ccccc1)C2=O` [Compound 51, 1-{2-[(2-benzyl-1,3-dioxo-2,3-dihydro-1H-isoindol-5-carbonyl)-amino]-ethyl}-pyrrolidinium chloride], the inhibition at 100 µM was 48.4%.

On to `Cc1ccc(CN2C(=O)c3ccc(C(=O)NCCN4CCCCC4)cc3C2=O)cc1` [Compound 105, 1-(2-{[2-(4-methyl-benzyl)-1,3-dioxo-2,3-dihydro-1H-isoindol-5-carbonyl]-amino}-ethyl)-piperidinium chloride], for which the inhibition at 10 µM amounted to 30.9%.

For `O=C(NCCN1CCCCC1)c1ccc2c(c1)C(=O)N(c1cccc(F)c1)C2=O` [Compound 13, 1-(2-{[2-(3-fluoro-phenyl)-1,3-dioxo-2,3-dihydro-1H-isoindol-5-carbonyl]-amino}-ethyl)-piperidinium chloride], the inhibition at 100 µM is 43%.

Regarding `O=C(NCCCN1CCOCC1)c1ccc2c(c1)C(=O)N(c1ccccc1)C2=O` [Compound 6, 4-{3-[(1,3-dioxo-2-phenyl-2,3-dihydro-1H-isoindol-5-carbonyl)-amino]-propyl}-4-morpholinium chloride], the inhibition at 100 µM was determined as 22.3%.

`O=C(NCCN1CCCCC1)c1ccc2c(c1)C(=O)N(Cc1ccc(F)cc1)C2=O` [Compound 68, 1-(2-{[2-(4-fluoro-benzyl)-1,3-dioxo-2,3-dihydro-1H-isoindol-5-carbonyl]-amino}-ethyl)-piperidinium chloride]: the inhibition at 100 µM was 78.2%.

For the compound `O=C(NCCCN1CCCC1)c1ccc2c(c1)C(=O)N(c1cccc(F)c1)C2=O` [Compound 16, 1-(3-{[2-(3-fluoro-phenyl)-1,3-dioxo-2,3-dihydro-1H-isoindol-5-carbonyl]-amino}-propyl)-pyrrolidinium chloride], the inhibition at 100 µM is 30%.

Regarding `Cc1cccc(N2C(=O)c3ccc(C(=O)NCCCN4CCCC4)cc3C2=O)c1` [Compound 36, 1-{3-[(1,3-dioxo-2-m-tolyl-2,3-dihydro-1H-isoindol-5-carbonyl)-amino]-propyl}-pyrrolidinium chloride], the inhibition at 10 µM turned out to be 5.3%.

For `O=C(NCCCN1CCCC1)c1ccc2c(c1)C(=O)N(Cc1cccc(F)c1)C2=O` [Compound 64, 1-(3-{[2-(3-fluoro-benzyl)-1,3-dioxo-2,3-dihydro-1H-isoindol-5-carbonyl]-amino}-propyl)-pyrrolidinium chloride], the inhibition at 100 µM came out at 65.9%.

In the case of `Cc1ccccc1N1C(=O)c2ccc(C(=O)NCCCN3CCCCC3C)cc2C1=O` (stereo not shown) [Compound 29, 1-{3-[(1,3-dioxo-2-o-tolyl-2,3-dihydro-1H-isoindol-5-carbonyl)-amino]-propyl}-2-methyl-piperidinium chloride], the inhibition at 100 µM was determined as 53.8%.

Take `COc1ccc(CN2C(=O)c3ccc(C(=O)NCCN4CCCC4)cc3C2=O)cc1` [Compound 125, 1-(2-{[2-(4-methoxy-benzyl)-1,3-dioxo-2,3-dihydro-1H-isoindol-5-carbonyl]-amino}-ethyl)-pyrrolidinium chloride]: the inhibition at 100 µM came out at 65.2%.

On to `O=C(NCCN1CCCC1)c1ccc2c(c1)C(=O)N(Cc1ccccc1F)C2=O` [Compound 57, 1-(2-{[2-(2-fluoro-benzyl)-1,3-dioxo-2,3-dihydro-1H isoindol-5-carbonyl]-amino}-ethyl)-pyrrolidinium chloride], for which the inhibition at 100 µM turned out to be 65.5%.

In the case of `O=C(NCCN1CCCC1)c1ccc2c(c1)C(=O)N(c1ccccc1)C2=O` [Compound 3, 1-{2-[(1,3-dioxo-2-phenyl-2,3-dihydro-1H-isoindol-5-carbonyl)-amino]-ethyl}-pyrrolidinium chloride], the inhibition at 100 µM was 20.3%.

Consider `O=C(NCCN1CCCC1)c1ccc2c(c1)C(=O)N(Cc1ccccc1Cl)C2=O` [Compound 77, 1-(2-{[2-(2-chloro-benzyl)-1,3-dioxo-2,3-dihydro-1H-isoindol-5-carbonyl]-amino}-ethyl)-pyrrolidinium chloride], for which the inhibition at 10 µM was determined as 21.5%.

With `O=C(NCCCN1CCOCC1)c1ccc2c(c1)C(=O)N(Cc1ccccc1F)C2=O` [Compound 60, 4-(3-{[2-(2-fluoro-benzyl)-1,3-dioxo-2,3-dihydro-1H-isoindol-5-carbonyl]-amino}-propyl)-4-morpholinium chloride], the inhibition at 100 µM amounted to 60.8%.

Take `O=C(NCCN1CCOCC1)c1ccc2c(c1)C(=O)N(c1ccccc1)C2=O` [Compound 5, 4-{2-[(1,3-dioxo-2-phenyl-2,3-dihydro-1H-isoindol-5-carbonyl)-amino]-ethyl}-4-morpholinium chloride]: the inhibition at 100 µM was 22.7%.

For the compound `COc1cccc(CN2C(=O)c3ccc(C(=O)NCCCN4CCOCC4)cc3C2=O)c1` [Compound 122, 4-(3-{[2-(3-methoxy-benzyl)-1,3-dioxo-2,3-dihydro-1H-isoindol-5-carbonyl]-amino}-propyl)-4-morpholinium chloride], the inhibition at 100 µM was 56.6%.

Regarding `O=C(NCCN1CCCC1)c1ccc2c(c1)C(=O)N(c1ccc(F)cc1)C2=O` [Compound 21, 1-(2-{[2-(4-fluoro-phenyl)-1,3-dioxo-2,3-dihydro-1H-isoindol-5-carbonyl]-amino}-ethyl)-pyrrolidinium chloride], the inhibition at 100 µM worked out at 19.4%.

For `COc1cccc(CN2C(=O)c3ccc(C(=O)NCCN4CCCC4)cc3C2=O)c1` [Compound 119, 1-(2-{[2-(3-methoxy-benzyl)-1,3-dioxo-2,3-dihydro-1H-isoindol-5-carbonyl]-amino}-ethyl)-pyrrolidinium chloride], the inhibition at 100 µM was determined as 56.3%.

As to `Cc1ccc(CN2C(=O)c3ccc(C(=O)NCCN4CCCC4)cc3C2=O)cc1` [Compound 107, 1-(2-{[2-(4-methyl-benzyl)-1,3-dioxo-2,3-dihydro-1H-isoindol-5-carbonyl]-amino}-ethyl)-pyrrolidinium chloride], the inhibition at 10 µM was determined as 20.7%.

As for `COc1cccc(CN2C(=O)c3ccc(C(=O)NCCCN4CCCCC4C)cc3C2=O)c1` (stereo not shown) [Compound 118, 1-(3-{[2-(3-methoxy-benzyl)-1,3-dioxo-2,3-dihydro-1H-isoindol-5-carbonyl]-amino}-propyl)-2-methyl-piperidinium chloride], the inhibition at 100 µM came out at 71.1%.

Regarding `COc1ccccc1CN1C(=O)c2ccc(C(=O)NCCN3CCOCC3)cc2C1=O` [Compound 115, 4-(2-{[2-(2-methoxy-benzyl)-1,3-dioxo-2,3-dihydro-1H-isoindol-5-carbonyl]-amino}-ethyl)-4-morpholinium chloride], the inhibition at 100 µM was 51.1%.

Turning to `Cc1ccc(CN2C(=O)c3ccc(C(=O)NCCN4CCOCC4)cc3C2=O)cc1` [Compound 109, 4-(2-{[2-(4-methyl-benzyl)-1,3-dioxo-2,3-dihydro-1H-isoindol-5-carbonyl]-amino}-ethyl)-4-morpholinium chloride], the inhibition at 10 µM was determined as 12.2%.

On to `O=C(NCCN1CCOCC1)c1ccc2c(c1)C(=O)N(Cc1ccc(F)cc1)C2=O` [Compound 72, 4-(2-{[2-(4-fluoro-benzyl)-1,3-dioxo-2,3-dihydro-1H-isoindol-5-carbonyl]-amino}-ethyl)-4-morpholinium chloride], for which the inhibition at 100 µM was 46.4%.

For the compound `O=C(NCCCN1CCOCC1)c1ccc2c(c1)C(=O)N(Cc1ccc(F)cc1)C2=O` [Compound 73, 4-(3-{[2-(4-fluoro-benzyl)-1,3-dioxo-2,3-dihydro-1H-isoindol-5-carbonyl]-amino}-propyl)-4-morpholinium chloride], the inhibition at 100 µM amounted to 64.8%.
